Active and inactive are the calls of the source. No rule for the calls is given here.
System: CCRIS mutagenicity, Ames/micronucleus/aberration tests
Experiment: CCRIS mutagenicity studies
[1] = Test System: AMES SALMONELLA TYPHIMURIUM, Strain/Indicator: TA98, Metabolic Activation: NONE, Method: STANDARD PLATE
[2] = Test System: AMES SALMONELLA TYPHIMURIUM, Strain/Indicator: TA100, Metabolic Activation: NONE, Method: STANDARD PLATE

With `[O-]/[N+](=N\O)c1ccccc1` the mutagenic call (Test System: AMES SALMONELLA TYPHIMURIUM, Strain/Indicator: TA98, Metabolic Activation: HAMSTER, LIVER, S-9, AROCLOR 1254, Method: STANDARD PLATE) was “inactive; negative”, the mutagenic call (Test System: AMES SALMONELLA TYPHIMURIUM, Strain/Indicator: TA98, Metabolic Activation: MOUSE, LIVER, S-9, AROCLOR 1254, Method: STANDARD PLATE) was “inactive; negative” and the mutagenic call (Test System: AMES SALMONELLA TYPHIMURIUM, Strain/Indicator: TA98, Metabolic Activation: MOUSE, LIVER, S-9, Method: STANDARD PLATE) was “inactive; negative”. The mutagenic call [1] was “inactive; negative”, the mutagenic call (Test System: AMES SALMONELLA TYPHIMURIUM, Strain/Indicator: TA98, Metabolic Activation: RAT, LIVER, S-9, AROCLOR 1254, Method: STANDARD PLATE) was “inactive; negative” and the mutagenic call (Test System: AMES SALMONELLA TYPHIMURIUM, Strain/Indicator: TA98, Metabolic Activation: RAT, LIVER, S-9, Method: STANDARD PLATE) was “inactive; negative”. For the same compound, the mutagenic call (Test System: AMES SALMONELLA TYPHIMURIUM, Strain/Indicator: TA100, Metabolic Activation: HAMSTER, LIVER, S-9, AROCLOR 1254, Method: STANDARD PLATE) was “inactive; negative”, the mutagenic call (Test System: AMES SALMONELLA TYPHIMURIUM, Strain/Indicator: TA100, Metabolic Activation: HAMSTER, LIVER, S-9, Method: STANDARD PLATE) was “inactive; negative” and the mutagenic call (Test System: AMES SALMONELLA TYPHIMURIUM, Strain/Indicator: TA100, Metabolic Activation: MOUSE, LIVER, S-9, AROCLOR 1254, Method: STANDARD PLATE) was “inactive; negative”. The mutagenic call (Test System: AMES SALMONELLA TYPHIMURIUM, Strain/Indicator: TA100, Metabolic Activation: MOUSE, LIVER, S-9, Method: STANDARD PLATE) was “inactive; negative”, the mutagenic call [2] was “inactive; negative” and the mutagenic call (Test System: AMES SALMONELLA TYPHIMURIUM, Strain/Indicator: TA100, Metabolic Activation: RAT, LIVER, S-9, AROCLOR 1254, Method: STANDARD PLATE) was “inactive; negative”. For the same compound, the mutagenic call (Test System: AMES SALMONELLA TYPHIMURIUM, Strain/Indicator: TA100, Metabolic Activation: RAT, LIVER, S-9, Method: STANDARD PLATE) was “inactive; negative”, the mutagenic call (Test System: AMES SALMONELLA TYPHIMURIUM, Strain/Indicator: TA1535, Metabolic Activation: HAMSTER, LIVER, S-9, AROCLOR 1254, Method: STANDARD PLATE) was “inactive; negative” and the mutagenic call (Test System: AMES SALMONELLA TYPHIMURIUM, Strain/Indicator: TA1535, Metabolic Activation: HAMSTER, LIVER, S-9, Method: STANDARD PLATE) was “inactive; negative”. The mutagenic call (Test System: AMES SALMONELLA TYPHIMURIUM, Strain/Indicator: TA1535, Metabolic Activation: MOUSE, LIVER, S-9, AROCLOR 1254, Method: STANDARD PLATE) was “inactive; negative”, the mutagenic call (Test System: AMES SALMONELLA TYPHIMURIUM, Strain/Indicator: TA1535, Metabolic Activation: MOUSE, LIVER, S-9, Method: STANDARD PLATE) was “inactive; negative” and the mutagenic call (Test System: AMES SALMONELLA TYPHIMURIUM, Strain/Indicator: TA1535, Metabolic Activation: NONE, Method: STANDARD PLATE) was “inactive; negative”. The mutagenic call (Test System: AMES SALMONELLA TYPHIMURIUM, Strain/Indicator: TA1535, Metabolic Activation: RAT, LIVER, S-9, AROCLOR 1254, Method: STANDARD PLATE) was “inactive; negative”, the mutagenic call (Test System: AMES SALMONELLA TYPHIMURIUM, Strain/Indicator: TA1535, Metabolic Activation: RAT, LIVER, S-9, Method: STANDARD PLATE) was “inactive; negative” and the mutagenic call (Test System: AMES SALMONELLA TYPHIMURIUM, Strain/Indicator: TA1537, Metabolic Activation: HAMSTER, LIVER, S-9, AROCLOR 1254, Method: STANDARD PLATE) was “inactive; negative”. The mutagenic call (Test System: AMES SALMONELLA TYPHIMURIUM, Strain/Indicator: TA1537, Metabolic Activation: HAMSTER, LIVER, S-9, Method: STANDARD PLATE) was “inactive; negative”, the mutagenic call (Test System: AMES SALMONELLA TYPHIMURIUM, Strain/Indicator: TA1537, Metabolic Activation: MOUSE, LIVER, S-9, AROCLOR 1254, Method: STANDARD PLATE) was “inactive; negative” and the mutagenic call (Test System: AMES SALMONELLA TYPHIMURIUM, Strain/Indicator: TA1537, Metabolic Activation: MOUSE, LIVER, S-9, Method: STANDARD PLATE) was “inactive; negative”. For the same compound, the mutagenic call (Test System: AMES SALMONELLA TYPHIMURIUM, Strain/Indicator: TA1537, Metabolic Activation: NONE, Method: STANDARD PLATE) was “inactive; negative”, the mutagenic call (Test System: AMES SALMONELLA TYPHIMURIUM, Strain/Indicator: TA1537, Metabolic Activation: RAT, LIVER, S-9, AROCLOR 1254, Method: STANDARD PLATE) was “inactive; negative” and the mutagenic call (Test System: AMES SALMONELLA TYPHIMURIUM, Strain/Indicator: TA1537, Metabolic Activation: RAT, LIVER, S-9, Method: STANDARD PLATE) was “inactive; negative”. The mutagenic call (Test System: AMES SALMONELLA TYPHIMURIUM, Strain/Indicator: TA1538, Metabolic Activation: HAMSTER, LIVER, S-9, AROCLOR 1254, Method: STANDARD PLATE) was “inactive; negative”, the mutagenic call (Test System: AMES SALMONELLA TYPHIMURIUM, Strain/Indicator: TA1538, Metabolic Activation: HAMSTER, LIVER, S-9, Method: STANDARD PLATE) was “inactive; negative” and the mutagenic call (Test System: AMES SALMONELLA TYPHIMURIUM, Strain/Indicator: TA1538, Metabolic Activation: RAT, LIVER, S-9, AROCLOR 1254, Method: STANDARD PLATE) was “inactive; negative”. For the same compound, the mutagenic call (Test System: E. COLI, Strain/Indicator: WP2 UVRA, Metabolic Activation: HAMSTER, LIVER, S-9, Method: STANDARD PLATE) was “inactive; negative”, the mutagenic call (Test System: E. COLI, Strain/Indicator: WP2 UVRA, Metabolic Activation: MOUSE, LIVER, S-9, AROCLOR 1254, Method: STANDARD PLATE) was “inactive; negative” and the mutagenic call (Test System: E. COLI, Strain/Indicator: WP2 UVRA, Metabolic Activation: MOUSE, LIVER, S-9, Method: STANDARD PLATE) was “inactive; negative”. For the same compound, the mutagenic call (Test System: E. COLI, Strain/Indicator: WP2 UVRA, Metabolic Activation: NONE, Method: STANDARD PLATE) was “inactive; negative” and the mutagenic call (Test System: E. COLI, Strain/Indicator: WP2 UVRA, Metabolic Activation: RAT, LIVER, S-9, Method: STANDARD PLATE) was “inactive; negative”.

For `COS(=O)(=O)OC`, the mutagenic call (End Point: IN VITRO CHROMOSOMAL ABERRATIONS, Test System: CHL CELLS, Metabolic Activation: NONE) was “active; positive (structural changes)”, the mutagenic call (End Point: IN VITRO CHROMOSOMAL ABERRATIONS, Test System: CHL CELLS, Metabolic Activation: RAT, LIVER, S-9, SODIUM PHENOBARBITAL AND 5,6-BENZOFLAVONE) was “active; positive (structural changes)” and the mutagenic call (End Point: In vitro micronucleus, Test System: Chinese Hamster Ovary (CHO-WBL) cells, Metabolic Activation: None) was “active; positive (p<0.01)”. For the same compound, the mutagenic call (Test System: AMES SALMONELLA TYPHIMURIUM, Strain/Indicator: TA98, Metabolic Activation: NONE) was “active; positive”, the mutagenic call (Test System: AMES SALMONELLA TYPHIMURIUM, Strain/Indicator: TA98, Metabolic Activation: NONE, Method: PREINCUBATION) was “active; positive” and the mutagenic call (Test System: AMES SALMONELLA TYPHIMURIUM, Strain/Indicator: TA98, Metabolic Activation: S-9) was “active; positive”. For the same compound, the mutagenic call (Test System: AMES SALMONELLA TYPHIMURIUM, Strain/Indicator: TA100, Metabolic Activation: NONE) was “active; positive”, the mutagenic call (Test System: AMES SALMONELLA TYPHIMURIUM, Strain/Indicator: TA100, Metabolic Activation: NONE, Method: PREINCUBATION) was “active; positive” and the mutagenic call (Test System: AMES SALMONELLA TYPHIMURIUM, Strain/Indicator: TA100, Metabolic Activation: S-9) was “active; positive”. For the same compound, the mutagenic call (Test System: AMES SALMONELLA TYPHIMURIUM, Strain/Indicator: TA1535, Metabolic Activation: NONE, Method: PREINCUBATION) was “active; positive”, the mutagenic call (Test System: AMES SALMONELLA TYPHIMURIUM, Strain/Indicator: TA1537, Metabolic Activation: NONE, Method: PREINCUBATION) was “active; positive” and the mutagenic call (Test System: AMES SALMONELLA TYPHIMURIUM, Strain/Indicator: TA1538, Metabolic Activation: NONE, Method: PREINCUBATION) was “active; positive”. The mutagenic call (Test System: CHINESE HAMSTER V-79, Strain/Indicator: V-79/6-THIOGUANINE, Metabolic Activation: NONE, Method: FLASK ASSAY) was “inactive; negative” and the mutagenic call (Test System: CHO/HGPRT, Strain/Indicator: CHO-K1-BH4, Metabolic Activation: NONE, Method: STANDARD PLATE) was “active; positive”.

`COC(=O)c1cc(-c2ccc(N)c(C(=O)OC)c2)ccc1N` was tested, and the mutagenic call (Test System: AMES SALMONELLA TYPHIMURIUM, Strain/Indicator: TA98(1,8-DNP6), Metabolic Activation: NONE, Method: STANDARD PLATE) was “inactive; negative”, the mutagenic call (Test System: AMES SALMONELLA TYPHIMURIUM, Strain/Indicator: TA98(1,8-DNP6), Metabolic Activation: S-9, Method: STANDARD PLATE) was “active; positive” and the mutagenic call [1] was “inactive; negative”. The mutagenic call (Test System: AMES SALMONELLA TYPHIMURIUM, Strain/Indicator: TA98, Metabolic Activation: S-9, Method: STANDARD PLATE) was “active; positive”, the mutagenic call [2] was “inactive; negative” and the mutagenic call (Test System: AMES SALMONELLA TYPHIMURIUM, Strain/Indicator: TA100, Metabolic Activation: S-9, Method: STANDARD PLATE) was “inactive; negative”.

With `COc1cc(O)cc2c1cc([N+](=O)[O-])c1c(C(=O)O)cc3c(c12)OCO3` the mutagenic call (Test System: AMES SALMONELLA TYPHIMURIUM, Strain/Indicator: TM677/8-AZAGUANINE, Metabolic Activation: NONE, Method: SUSPENSION/PLATE) was “inactive; negative”.

Reference: PubChem BioAssay AID1259407 (Chemical Carcinogenesis Research Information System (CCRIS), 2018)
